This passage reports IC50 results from the supplement of paper PMC7695840.

Each structure is given as a SMILES string. Structures can show the parent of a compound that is named as a salt.

The subject of test [1] is Staphylococcus aureus MW2 (mecA+). The test is described as follows: IC50 (growth, competition assay). Conditions: cefoxitin: subinhibitory. The essentials: (§1)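 Two fluorescent S. aureus MW2 strains, one carrying and one lacking the resistance gene, were pre-induced, mixed 1:1 and grown unshaken in LB in 1536-well plates for 20 h at 37 °C and 90% humidity with a subinhibitory drug dose set each day. Compounds were tested on five- or nine-point 2-fold gradients in two dye-swapped replicates. DsRed (540/590) and GFP (485/520) signals were scaled per plate between the medians of single-strain controls, and No Treatment was then set to 0.5. For each strain, IC50 was taken as the dose that halved the No Treatment signal, or else the maximal signal.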

Test [2] concerns Staphylococcus aureus MW2 delta-mecA (mecA-). As to the kind of experiment: IC50 (growth, competition assay). The following applies: cefoxitin: subinhibitory. The essentials:
as §1

With `CC/C(=C(\c1ccccc1)c1ccc(OCCN(C)C)cc1)c1ccccc1` [Tamoxifen], the IC50 in test [1] (fluorescent label: DsRed) is 14.8 µM; in test [1] (fluorescent label: GFP) it was 14.9 µM; in test [2] (fluorescent label: DsRed) it was 12.2 µM; in test [2] (fluorescent label: GFP), less than 9.85 µM.
The matching figures for `CCCCCCCCCc1ccc(OCCOCCOCCOCCOCCOCCOCCOCCOCCO)cc1` [CONCEPTROL]: 32 µM, 37 µM, 12.8 µM and less than 9.85 µM.
The matching figures for `CN(C)[C@@H]1C(O)=C(C(N)=O)C(=O)[C@@]2(O)C(O)=C3C(=O)c4c(O)ccc(Cl)c4[C@@](C)(O)[C@H]3C[C@@H]12` [AUREOMYCIN]: less than 9.85 µM, less than 9.85 µM, less than 9.85 µM and less than 9.85 µM.
The matching figures for `CCn1cc(C(=O)O)c(=O)c2cc(F)c(N3CCNCC3)nc21` [PENETREX]: less than 9.85 µM, less than 9.85 µM, less than 9.85 µM and less than 9.85 µM.
In the case of `OC1(c2ccc(Cl)c(C(F)(F)F)c2)CCN(CCCC(c2ccc(F)cc2)c2ccc(F)cc2)CC1` [SEMAP], the IC50 was 29.7 µM in test [1] (fluorescent label: DsRed), 27.3 µM in test [1] (fluorescent label: GFP), less than 9.85 µM in test [2] (fluorescent label: DsRed) and less than 9.85 µM in test [2] (fluorescent label: GFP).
Regarding `C=C1c2cccc(O)c2C(=O)C2=C(O)[C@]3(O)C(=O)C(C(N)=O)=C(O)[C@@H](N(C)C)[C@@H]3[C@@H](O)[C@H]12` [RONDOMYCIN], the IC50 in test [1] (fluorescent label: DsRed), in test [1] (fluorescent label: GFP), in test [2] (fluorescent label: DsRed) and in test [2] (fluorescent label: GFP) was less than 9.85 µM in each case.
With `Cc1cnc(-c2ccccc2C(C)C)nc1NCc1ccc(-n2ccnn2)cc1` [ML323], the IC50 in test [1] (fluorescent label: DsRed) was 35.3 µM; in test [1] (fluorescent label: GFP), 49.6 µM; in test [2] (fluorescent label: DsRed) it was less than 9.85 µM; in test [2] (fluorescent label: GFP) it was less than 9.85 µM.
For `CO[C@@]12[C@H](COC(N)=O)C3=C(C(=O)C(C)=C(N)C3=O)N1C[C@@H]1N[C@@H]12` [MUTAMYCIN], the IC50 in test [1] (fluorescent label: DsRed), in test [1] (fluorescent label: GFP), in test [2] (fluorescent label: DsRed) and in test [2] (fluorescent label: GFP) was less than 9.85 µM each time.
`COc1c(N2C[C@@H]3CCCN[C@@H]3C2)c(F)cc2c(=O)c(C(=O)O)cn(C3CC3)c12` [Moxifloxacin hydrochloride]: the IC50 in test [1] (fluorescent label: DsRed), in test [1] (fluorescent label: GFP), in test [2] (fluorescent label: DsRed) and in test [2] (fluorescent label: GFP) was less than 0.498 µM each time.
For `Cc1cc(C(C#N)c2ccc(Cl)cc2)c(Cl)cc1NC(=O)c1cc(I)cc(I)c1O` (stereo unspecified) [FLUKIVER], the half-inhibitory concentration (IC50) in test [1] (fluorescent label: DsRed), in test [1] (fluorescent label: GFP), in test [2] (fluorescent label: DsRed) and in test [2] (fluorescent label: GFP) was less than 9.85 µM throughout.
In the case of `Oc1c(Cl)cc(Cl)cc1Sc1cc(Cl)cc(Cl)c1O` [LOROTHIDOL], the IC50 in test [1] (fluorescent label: DsRed), in test [1] (fluorescent label: GFP), in test [2] (fluorescent label: DsRed) and in test [2] (fluorescent label: GFP) was less than 9.85 µM throughout.
Regarding `O=C1OC(CN2CCOCC2)CN1/N=C/c1ccc([N+](=O)[O-])o1` (stereo unspecified) [FURALTADONE], the IC50 in test [1] (fluorescent label: DsRed) worked out at 17.8 µM; in test [1] (fluorescent label: GFP) it was 15.1 µM; in test [2] (fluorescent label: DsRed) it was 11.4 µM; in test [2] (fluorescent label: GFP), 18.5 µM.
In the same order, the values of `C[C@H]1O[C@@H](n2cc(F)c(=O)[nH]c2=O)[C@H](O)[C@@H]1O` [FURTULON] are 10.3 µM, less than 9.85 µM, less than 9.85 µM and less than 9.85 µM.
The matching figures for `CC[C@H]1OC(=O)[C@H](C)[C@@H](O[C@H]2C[C@@](C)(OC)[C@@H](O)[C@H](C)O2)[C@H](C)[C@@H](O[C@@H]2O[C@H](C)C[C@H](N(C)C)[C@H]2O)[C@](C)(O)C[C@@H](C)CN(C)[C@H](C)[C@@H](O)[C@]1(C)O` [ZITHROMAX]: less than 9.85 µM, 15.7 µM, less than 9.85 µM and less than 9.85 µM.
In the same order, the values of `CCn1cc(C(=O)O)c(=O)c2cc(F)c(N3CCNCC3)cc21` [Norfloxacin (Norxacin)] are 0.816 µM, 0.772 µM, less than 0.498 µM and less than 0.498 µM.
Take `CNCc1ccc(C)c(NC(=O)c2ccc(Nc3nc(-c4ccccc4)c4ccccc4n3)cc2)c1`: the IC50 was 15.9 µM in test [1] (fluorescent label: DsRed), 14.5 µM in test [1] (fluorescent label: GFP), less than 9.85 µM in test [2] (fluorescent label: DsRed) and less than 9.85 µM in test [2] (fluorescent label: GFP).
As to `CC(C)(C)c1cc(C(C)(C)C)c(NC(=O)c2c[nH]c3ccccc3c2=O)cc1O` [Ivacaftor (VX-770)], the IC50 in test [1] (fluorescent label: DsRed) came out at 9.86 µM; in test [1] (fluorescent label: GFP), 14.8 µM; in test [2] (fluorescent label: DsRed) it was 1.27 µM; in test [2] (fluorescent label: GFP), 1.6 µM.
In the same order, the values of `O=C(O)c1cn(C2CC2)c2cc(N3CCNCC3)c(F)cc2c1=O` [CIPRO] are less than 9.85 µM, less than 9.85 µM, less than 9.85 µM and less than 9.85 µM.
For `CCN(CC)CCOc1ccc(C(=C(Cl)c2ccccc2)c2ccccc2)cc1` [CLOMID], the IC50 was 23.7 µM in test [1] (fluorescent label: DsRed), 34.5 µM in test [1] (fluorescent label: GFP), 15.5 µM in test [2] (fluorescent label: DsRed) and less than 9.85 µM in test [2] (fluorescent label: GFP).
The matching figures for `CC(=O)/C=C1/C(=O)N(C)c2ccccc21` [Supercinnamaldehyde]: 46.8 µM, 60.4 µM, less than 9.85 µM and less than 9.85 µM.
In the same order, the values of `C[C@@H]1CN(c2c(F)c(N)c3c(=O)c(C(=O)O)cn(C4CC4)c3c2F)C[C@H](C)N1` [Sparfloxacin] are 0.78 µM, 0.746 µM, less than 0.498 µM and less than 0.498 µM.
`CN(C)[C@@H]1C(=O)C(C(N)=O)=C(O)[C@@]2(O)C(=O)C3=C(O)c4c(O)ccc(Cl)c4[C@@H](O)[C@H]3C[C@@H]12` [Demeclocycline hydrochloride]: the IC50 in test [1] (fluorescent label: DsRed), in test [1] (fluorescent label: GFP), in test [2] (fluorescent label: DsRed) and in test [2] (fluorescent label: GFP) was less than 9.85 µM in each case.
For `CC1(C)S[C@@H]2[C@H](NC(=O)C(C(=O)O)c3ccccc3)C(=O)N2[C@H]1C(=O)O` (stereo partly specified) [Carbenicillin disodium], the IC50 in test [1] (fluorescent label: DsRed) is 20.8 µM; in test [1] (fluorescent label: GFP), 42.1 µM; in test [2] (fluorescent label: DsRed), less than 9.85 µM; in test [2] (fluorescent label: GFP), less than 9.85 µM.
Take `Cc1sc2c(c1C)C(c1ccc(Cl)cc1)=N[C@@H](CC(=O)OC(C)(C)C)c1nnc(C)n1-2` [(+)-JQ1]: the IC50 in test [1] (fluorescent label: DsRed) amounted to 96.8 µM; in test [1] (fluorescent label: GFP) it was 112 µM; in test [2] (fluorescent label: DsRed), 47 µM; in test [2] (fluorescent label: GFP) it was 35.2 µM.
For `CCC[C@H](NC(=O)/C(C#N)=C/c1cccc(Br)n1)c1ccccc1` [WP1130], the IC50 was found to be 13.7 µM in test [1] (fluorescent label: DsRed), 27.5 µM in test [1] (fluorescent label: GFP), 2.28 µM in test [2] (fluorescent label: DsRed) and 0.904 µM in test [2] (fluorescent label: GFP).
As for `Cn1cncc1[C@@](N)(c1ccc(Cl)cc1)c1ccc2c(c1)c(-c1cccc(Cl)c1)cc(=O)n2C` [Tipifarnib (Zarnestra)], the IC50 in test [1] (fluorescent label: DsRed) was 29.6 µM; in test [1] (fluorescent label: GFP), 15.1 µM; in test [2] (fluorescent label: DsRed), less than 9.85 µM; in test [2] (fluorescent label: GFP) it was 11.3 µM.
Regarding `O=c1[nH]nc(Sc2ncc([N+](=O)[O-])s2)n1-c1ccc2c(c1)OCCO2` [BI 78D3], the IC50 in test [1] (fluorescent label: DsRed) is less than 9.85 µM; in test [1] (fluorescent label: GFP) it was 11.9 µM; in test [2] (fluorescent label: DsRed), less than 9.85 µM; in test [2] (fluorescent label: GFP), less than 9.85 µM.
For `Cc1cc(-n2c(=O)[nH]c(=O)n(C)c2=O)ccc1Oc1ccc(SC(F)(F)F)cc1` [Toltrazuril], the IC50 stood at 34.6 µM in test [1] (fluorescent label: DsRed), 71.9 µM in test [1] (fluorescent label: GFP), 24.3 µM in test [2] (fluorescent label: DsRed) and 27.3 µM in test [2] (fluorescent label: GFP).
The matching figures for `COC(=O)[C@@]1(C)CCC[C@]2(C)c3ccc(O)c(C(C)C)c3CCC12` (stereo partly specified) [TOTAROL-19-CARBOXYLIC ACID, METHYL ESTER]: 27.6 µM, 62.8 µM, 66 µM and 15.6 µM.

What is called IC50 is the midpoint of a concentration-inhibition curve. Lower therefore signals higher potency.
